Among the data in patent US9493430B2, “Biaryl- or heterocyclic biaryl-substituted cyclohexene derivative compounds as CETP inhibitors” (CHONG KUN DANG PHARMACEUTICAL CORP., priority 2013, dated 2016) are IC50 values, retold here.

The target of this test is CETP (Homo sapiens (Human), UniProt P11597). The experiment in a line: Test for inhibition of cholesteryl ester transfer (in vitro). The following applies: human plasma as CETP source, LDL from healthy persons as acceptor, rHDL-agarose donor, 37° C. It counts as biochemical. The text has this:
Test for Inhibition of Cholesteryl Ester Transfer (In Vitro)
1. Construction of Cholesteryl Ester Donor
To construct a cholesteryl ester donor to be used in the test, radiolabeled recombinant HDL containing […] (GE healthcare, TRK886, 3.5 μCi/mg of apoA-1) and apoA-1 was synthesized. Then, rHDL-agarose having the recombinant HDL immobilized thereon by CNBr-activated Sepharose 4B (Amersham Biosciences, Sweden) resin was used in the test.
2. Cholesteryl Ester Transfer Test
As a protein source for cholesteryl ester transfer, plasma from healthy persons was used, and as a cholesteryl ester receptor, LDL from healthy persons was used. Samples were treated with each test compound to final concentrations of 16, 80, 400, 2000 and 10000 nM and analyzed in duplicate. For the cholesteryl ester transfer test, 20 μl of plasma, 50 μl of LDL (0.25 mg/ml) and 50 μl of rHDL-agarose (0.25 mg/ml) were added, and a solution containing a test compound was added, followed by reaction at 37° C. Then, centrifugation was performed at 4° C. for 3 minutes to stop the reaction, and 150 μl of the supernatant was taken and transferred to a 96-well plate for radioactivity measurement, and the radioactivity of the plate was measured with a beta-ray detector.
3. Statistical Processing
The ratio of [^3H]-cholesteryl oleate from HDL to LDL was calculated and used as a result value, and from the result value, IC50 value was calculated using GraphPad Prism 5.0.

pIC50: −log10 of the molar value.

Chain of CETP (P11597 18-493): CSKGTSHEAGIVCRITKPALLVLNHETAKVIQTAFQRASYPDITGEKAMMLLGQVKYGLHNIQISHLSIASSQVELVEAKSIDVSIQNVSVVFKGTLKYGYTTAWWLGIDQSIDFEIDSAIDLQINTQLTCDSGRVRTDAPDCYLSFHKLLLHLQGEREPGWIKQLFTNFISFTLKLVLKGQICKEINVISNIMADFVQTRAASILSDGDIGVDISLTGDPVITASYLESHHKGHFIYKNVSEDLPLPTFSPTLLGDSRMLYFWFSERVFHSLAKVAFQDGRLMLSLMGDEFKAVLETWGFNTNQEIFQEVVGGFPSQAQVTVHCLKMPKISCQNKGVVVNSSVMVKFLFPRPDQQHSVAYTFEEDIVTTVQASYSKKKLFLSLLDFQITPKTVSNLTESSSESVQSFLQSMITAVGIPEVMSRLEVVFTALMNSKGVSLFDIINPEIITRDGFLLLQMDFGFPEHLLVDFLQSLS

In turn, `COc1ncc(-c2ccc(C(=O)O)c(F)c2F)cc1C1=C(CN2C(=O)O[C@H](c3cc(C(F)(F)F)cc(C(F)(F)F)c3)[C@@H]2C)CC(C)(C)CC1` [Compound 596, 4-(3-(2-(((4S,5R)-5-(3,5-bis(trifluoromethyl)phenyl)-4-methyl-2-oxooxazolidin-3-yl)methyl)-4,4-dimethylcyclohex-1-enyl)-2-methoxypyridin-5-yl)-2,3-difluorobenzoic acid] showed a pIC50 of 7.75. The molecule `COc1cc(C)c(-c2ccc(C(=O)O)cc2C)cc1C1=C(CN2C(=O)O[C@H](c3cc(C(F)(F)F)cc(C(F)(F)F)c3)[C@@H]2C)CC(C)(C)CC1` [Compound 684, 5′-(2-(((4S,5R)-5-(3,5-bis(trifluoromethyl)phenyl)-4-methyl-2-oxooxazolidin-3-yl)methyl)-4,4-dimethylcyclohex-1-enyl)-4′-methoxy-2,2′-dimethylbiphenyl-4-carboxylic acid] gave a pIC50 of 8.72. `COc1cc(C2=C(CN3C(=O)O[C@H](c4cc(C(F)(F)F)cc(C(F)(F)F)c4)[C@@H]3C)CC(C)(C)CC2)cc(-c2ccc(C(=O)O)cc2C)c1` [Compound 689, 3′-(2-(((4S,5R)-5-(3,5-bis(trifluoromethyl)phenyl)-4-methyl-2-oxooxazolidin-3-yl)methyl)-4,4-dimethylcyclohex-1-enyl)-5′-methoxy-2-methylbiphenyl-4-carboxylic acid] gave a negative-log IC50 (pIC50) of 7.61.

In the case of `COc1cc(C(F)(F)F)c(-c2ccc(C(=O)O)cc2)cc1C1=C(CN2C(=O)O[C@H](c3cc(C(F)(F)F)cc(C(F)(F)F)c3)[C@@H]2C)CC(C)(C)CC1` [Compound 612, 5′-(2-(((4S,5R)-5-(3,5-bis(trifluoromethyl)phenyl)-4-methyl-2-oxooxazolidin-3-yl)methyl)-4,4-dimethylcyclohex-1-enyl)-4′-methoxy-2′-(trifluoromethyl)biphenyl-4-carboxylic acid], the pIC50 is 8.16. With `COc1cc(C(F)(F)F)c(-c2ccc(C(=O)O)cc2C)cc1C1=C(CN2C(=O)O[C@H](c3cc(C(F)(F)F)cc(C(F)(F)F)c3)[C@@H]2C)CC(C)(C)CC1` [Compound 616, 5′-(2-(((4S,5R)-5-(3,5-bis(trifluoromethyl)phenyl)-4-methyl-2-oxooxazolidin-3-yl)methyl)-4,4-dimethylcyclohex-1-enyl)-4′-methoxy-2-methyl-2′-(trifluoromethyl)biphenyl-4-carboxylic acid], the negative-log IC50 (pIC50) was 8.12.

`COc1ncc(-c2ccc(C(=O)O)cc2C(C)C)cc1C1=C(CN2C(=O)O[C@H](c3cc(C(F)(F)F)cc(C(F)(F)F)c3)[C@@H]2C)CC(C)(C)CC1` [Compound 578, 4-(3-(2-(((4S,5R)-5-(3,5-bis(trifluoromethyl)phenyl)-4-methyl-2-oxooxazolidin-3-yl)methyl)-4,4-dimethylcyclohex-1-enyl)-2-methoxypyridin-5-yl)-3-isopropylbenzoic acid] showed a pIC50 of 7.90. Next, `COc1ccc(-c2ccc(C(=O)O)cc2C(F)(F)F)nc1C1=C(CN2C(=O)O[C@H](c3cc(C(F)(F)F)cc(C(F)(F)F)c3)[C@@H]2C)CC(C)(C)CC1` [Compound 764, 4-(2-(2-(((4S,5R)-5-(3,5-bis(trifluoromethyl)phenyl)-4-methyl-2-oxooxazolidin-3-yl)methyl)-4,4-dimethylcyclohex-1-enyl)-3-methoxypyridin-6-yl)-3-(trifluoromethyl)benzoic acid]: 8.05; `COc1ccc(-c2ccc(C(=O)O)cc2OC)cc1C1=C(CN2C(=O)O[C@H](c3cc(C(F)(F)F)cc(C(F)(F)F)c3)[C@@H]2C)CC(C)(C)CC1` [Compound 597, 3′-(2-(((4S,5R)-5-(3,5-bis(trifluoromethyl)phenyl)-4-methyl-2-oxooxazolidin-3-yl)methyl)-4,4-dimethylcyclohex-1-enyl)-2,4′-dimethoxybiphenyl-4-carboxylic acid]: 7.30.

For `C[C@H]1[C@@H](c2cc(C(F)(F)F)cc(C(F)(F)F)c2)OC(=O)N1CC1=C(c2cc(-c3ccc(C(=O)O)cc3Cl)ccc2F)CCC(C)(C)C1` [Compound 739, 3′-(2-(((4S,5R)-5-(3,5-bis(trifluoromethyl)phenyl)-4-methyl-2-oxooxazolidin-3-yl)methyl)-4,4-dimethylcyclohex-1-enyl)-2-chloro-4′-fluorobiphenyl-4-carboxylic acid], the negative logarithm of the IC50 (pIC50) is 7.69. This pIC50 lies 0.39 log units higher than the previous one.

With `C[C@H]1[C@@H](c2cc(C(F)(F)F)cc(C(F)(F)F)c2)OC(=O)N1CC1=C(c2cc(-c3ccc(C(=O)O)cc3C(F)(F)F)ccc2Cl)CCC(C)(C)C1` [Compound 729, 3′-(2-(((4S,5R)-5-(3,5-bis(trifluoromethyl)phenyl)-4-methyl-2-oxooxazolidin-3-yl)methyl)-4,4-dimethylcyclohex-1-enyl)-4′-chloro-2-(trifluoromethyl)biphenyl-4-carboxylic acid], the pIC50 was 8.12. Compared with the last molecule, the pIC50 is 0.43 log units higher. Under `COc1ccc(-c2ccc(C(=O)O)c(F)c2F)cc1C1=C(CN2C(=O)O[C@H](c3cc(C(F)(F)F)cc(C(F)(F)F)c3)[C@@H]2C)CC(C)(C)CC1` [Compound 592, 3′-(2-(((4S,5R)-5-(3,5-bis(trifluoromethyl)phenyl)-4-methyl-2-oxooxazolidin-3-yl)methyl)-4,4-dimethylcyclohex-1-enyl)-2,3-difluoro-4′-methoxybiphenyl-4-carboxylic acid] stands 8.08; under `COc1ccc(-c2ccc(C(=O)O)cc2F)cc1C1=C(CN2C(=O)O[C@H](c3cc(C(F)(F)F)cc(C(F)(F)F)c3)[C@@H]2C)CC(C)(C)CC1` [Compound 561, 3′-(2-(((4S,5R)-5-(3,5-bis(trifluoromethyl)phenyl)-4-methyl-2-oxooxazolidin-3-yl)methyl)-4,4-dimethylcyclohex-1-enyl)-2-fluoro-4′-methoxybiphenyl-4-carboxylic acid], 7.63; under `COc1cc(C)c(-c2ccc(C(=O)O)cc2)cc1C1=C(CN2C(=O)O[C@H](c3cc(C(F)(F)F)cc(C(F)(F)F)c3)[C@@H]2C)CC(C)(C)CC1` [Compound 620, 5′-(2-(((4S,5R)-5-(3,5-bis(trifluoromethyl)phenyl)-4-methyl-2-oxooxazolidin-3-yl)methyl)-4,4-dimethylcyclohex-1-enyl)-4′-methoxy-2′-methylbiphenyl-4-carboxylic acid], 7.94. On to `Cc1cc(C(=O)O)ccc1-c1cc(C2=C(CN3C(=O)O[C@H](c4cc(C(F)(F)F)cc(C(F)(F)F)c4)[C@@H]3C)CC(C)(C)CC2)ccc1C` [Compound 677, 5′-(2-(((4S,5R)-5-(3,5-bis(trifluoromethyl)phenyl)-4-methyl-2-oxooxazolidin-3-yl)methyl)-4,4-dimethylcyclohex-1-enyl)-2,2′-dimethylbiphenyl-4-carboxylic acid], for which the pIC50 was 7.80. Next, `COc1cc(F)c(-c2ccc(C(=O)O)cc2)cc1C1=C(CN2C(=O)O[C@H](c3cc(C(F)(F)F)cc(C(F)(F)F)c3)[C@@H]2C)CC(C)(C)CC1` [Compound 575, 5′-(2-(((4S,5R)-5-(3,5-bis(trifluoromethyl)phenyl)-4-methyl-2-oxooxazolidin-3-yl)methyl)-4,4-dimethylcyclohex-1-enyl)-2′-fluoro-4′-methoxybiphenyl-4-carboxylic acid]: 7.84; `C[C@H]1[C@@H](c2cc(C(F)(F)F)cc(C(F)(F)F)c2)OC(=O)N1CC1=C(c2ccc(F)c(-c3ccc(C(=O)O)cc3C(F)(F)F)c2)CCC(C)(C)C1` [Compound 723, 5′-(2-(((4S,5R)-5-(3,5-bis(trifluoromethyl)phenyl)-4-methyl-2-oxooxazolidin-3-yl)methyl)-4,4-dimethylcyclohex-1-enyl)-2′-fluoro-2-(trifluoromethyl)biphenyl-4-carboxylic acid]: 8.02.

`COc1cc(C(F)(F)F)c(-c2ccc(C(=O)O)c(F)c2)cc1C1=C(CN2C(=O)O[C@H](c3cc(C(F)(F)F)cc(C(F)(F)F)c3)[C@@H]2C)CC(C)(C)CC1` [Compound 614, 5′-(2-(((4S,5R)-5-(3,5-bis(trifluoromethyl)phenyl)-4-methyl-2-oxooxazolidin-3-yl)methyl)-4,4-dimethylcyclohex-1-enyl)-3-fluoro-4′-methoxy-2′-(trifluoromethyl)biphenyl-4-carboxylic acid]: the pIC50 is 7.57. Next, `COC(=O)c1cccc(-c2ccc(OC)c(C3=C(CN4C(=O)O[C@H](c5cc(C(F)(F)F)cc(C(F)(F)F)c5)[C@@H]4C)CC(C)(C)CC3)c2)c1` [Compound 567, methyl 3′-(2-(((4S,5R)-5-(3,5-bis(trifluoromethyl)phenyl)-4-methyl-2-oxooxazolidin-3-yl)methyl)-4,4-dimethylcyclohex-1-enyl)-4′-methoxybiphenyl-3-carboxylate]: 7.25; `COC(=O)c1ccc(-c2cnc(OC)c(C3=C(CN4C(=O)O[C@H](c5cc(C(F)(F)F)cc(C(F)(F)F)c5)[C@@H]4C)CC(C)(C)CC3)c2)c(C)c1` [Compound 555, methyl 4-(3-(2-(((4S,5R)-5-(3,5-bis(trifluoromethyl)phenyl)-4-methyl-2-oxooxazolidin-3-yl)methyl)-4,4-dimethylcyclohex-1-enyl)-2-methoxypyridin-5-yl)-3-methylbenzoate]: 7.55.

What is called pIC50 is the negative decadic logarithm of the IC50, by convention in mol/L. Read a low pIC50 as a large IC50.
